Source: PubChem BioAssay (NCI)
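Following 48 hours of exposure in 96-well plates, responses at five concentrations were used to interpolate endpoints linearly. TGI: total growth inhibition.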 Where a SMILES comes first, the peptide text is derived from it. Bridges are numbered along the chain shown (N, C = ends). [ ]: non-standard residue; d: D form. The star is where a group is joined. Cbz = O=C(OCc1ccccc1)*; Aib = CC(C)(N)C(=O)O; OBn = c1ccc(CO*)cc1; βAla = NCCC(=O)O

Experiments:
Assay in all cases: NCI anticancer screen, dose series, 48 h
PC-3 prostate = tested on: PC-3 prostate
HCT-116 colon = tested on: HCT-116 colon
LOX IMVI melanoma = tested on: LOX IMVI melanoma
COLO 205 colon = tested on: COLO 205 colon
M14 melanoma = tested on: M14 melanoma
OVCAR-8 ovarian = tested on: OVCAR-8 ovarian
HT29 colon = tested on: HT29 colon
BT-549 breast = tested on: BT-549 breast
SF-295 CNS = tested on: SF-295 CNS
CCRF-CEM leukemia = tested on: CCRF-CEM leukemia
K-562 leukemia = tested on: K-562 leukemia
SF-539 CNS = tested on: SF-539 CNS
MDA-MB-435 = tested on: MDA-MB-435
TK-10 renal = tested on: TK-10 renal
RXF 393 renal = tested on: RXF 393 renal
SK-MEL-2 melanoma = tested on: SK-MEL-2 melanoma
HCT-15 colon = tested on: HCT-15 colon
SK-MEL-28 melanoma = tested on: SK-MEL-28 melanoma
MOLT-4 leukemia = tested on: MOLT-4 leukemia
MCF7 breast = tested on: MCF7 breast
OVCAR-4 ovarian = tested on: OVCAR-4 ovarian
T-47D breast = tested on: T-47D breast
CAKI-1 renal = tested on: CAKI-1 renal
ACHN renal = tested on: ACHN renal
SNB-19 CNS = tested on: SNB-19 CNS
UACC-257 melanoma = tested on: UACC-257 melanoma
SW-620 colon = tested on: SW-620 colon
DU-145 prostate = tested on: DU-145 prostate
786-0 renal = tested on: 786-0 renal
SK-OV-3 ovarian = tested on: SK-OV-3 ovarian
NCI-H522 lung = tested on: NCI-H522 lung
NCI-H460 lung = tested on: NCI-H460 lung
MALME-3M melanoma = tested on: MALME-3M melanoma
HS 578T breast = tested on: HS 578T breast
UO-31 renal = tested on: UO-31 renal
MDA-N = tested on: MDA-N
A498 renal = tested on: A498 renal
SK-MEL-5 melanoma = tested on: SK-MEL-5 melanoma
HCC-2998 colon = tested on: HCC-2998 colon
SNB-75 CNS = tested on: SNB-75 CNS
OVCAR-3 ovarian = tested on: OVCAR-3 ovarian
OVCAR-5 ovarian = tested on: OVCAR-5 ovarian
EKVX NSCLC = tested on: EKVX NSCLC
SF-268 CNS = tested on: SF-268 CNS
KM12 colon = tested on: KM12 colon
RPMI-8226 leukemia = tested on: RPMI-8226 leukemia
A549 NSCLC = tested on: A549 NSCLC
SN12C renal = tested on: SN12C renal
HOP-62 NSCLC = tested on: HOP-62 NSCLC
NCI/ADR-RES ovarian = tested on: NCI/ADR-RES ovarian
U251 CNS = tested on: U251 CNS
UACC-62 melanoma = tested on: UACC-62 melanoma
IGROV1 ovarian = tested on: IGROV1 ovarian
NCI-H23 lung = tested on: NCI-H23 lung
NCI-H226 lung = tested on: NCI-H226 lung
MDA-MB-231 breast = tested on: MDA-MB-231 breast
HOP-92 NSCLC = tested on: HOP-92 NSCLC
HL-60(TB) leukemia = tested on: HL-60(TB) leukemia
SR leukemia = tested on: SR leukemia

Measured: TGI

CSc1nc(Cl)c2c(n1)Sc1nc3cc4c(cc3n1C2O)OCO4 (centres undefined)
> 30.4 µM: HS 578T breast
> 100 µM: CCRF-CEM leukemia | K-562 leukemia | MDA-MB-435 | TK-10 renal | HCT-15 colon | SK-MEL-28 melanoma | MOLT-4 leukemia | MCF7 breast | OVCAR-4 ovarian | T-47D breast | CAKI-1 renal | ACHN renal | SNB-19 CNS | UACC-257 melanoma | DU-145 prostate | SNB-75 CNS | OVCAR-5 ovarian | EKVX NSCLC | SF-268 CNS | KM12 colon | NCI-H23 lung
32.4 µM: SN12C renal
> 31.3 µM: BT-549 breast
> 75.3 µM: SK-OV-3 ovarian
> 83.2 µM: SF-295 CNS
> 47.4 µM: HCT-116 colon
7.49 µM: SK-MEL-5 melanoma
0.686 µM: COLO 205 colon
> 32 µM: NCI-H460 lung
16.7 µM: HOP-62 NSCLC
6.09 µM: NCI-H226 lung
> 81.8 µM: SW-620 colon
> 43.9 µM: M14 melanoma
> 47.9 µM: A549 NSCLC
> 20.8 µM: RPMI-8226 leukemia
> 60.9 µM: HCC-2998 colon
0.327 µM: SF-539 CNS
0.746 µM: LOX IMVI melanoma
36.1 µM: MDA-N
7.3 µM: OVCAR-3 ovarian
> 50.1 µM: U251 CNS
3.85 µM: OVCAR-8 ovarian
> 39 µM: 786-0 renal
7.55 µM: HT29 colon
0.639 µM: NCI-H522 lung
14.2 µM: UACC-62 melanoma
5.72 µM: NCI/ADR-RES ovarian
> 51.9 µM: RXF 393 renal
> 83.3 µM: MDA-MB-231 breast
> 57.8 µM: UO-31 renal
40.4 µM: A498 renal
> 60.3 µM: PC-3 prostate
63.9 µM: MALME-3M melanoma
> 64.4 µM: SK-MEL-2 melanoma
> 72.2 µM: IGROV1 ovarian

CC1(C)NC(=O)C(NC(=O)C(CC(=O)OCc2ccccc2)NC(=O)OCc2ccccc2)CCCCNC(=O)CCNC1=O (centres undefined) (Cbz-D(OBn)K[Aib][βAla]; lactam 2-C; configuration not given here)
> 100 µM: PC-3 prostate | HCT-116 colon | LOX IMVI melanoma | COLO 205 colon | M14 melanoma | OVCAR-8 ovarian | HOP-92 NSCLC | HT29 colon | BT-549 breast | SF-295 CNS | K-562 leukemia | SF-539 CNS | MDA-MB-435 | TK-10 renal | RXF 393 renal | HCT-15 colon | SK-MEL-28 melanoma | MOLT-4 leukemia | MCF7 breast | OVCAR-4 ovarian | T-47D breast | CAKI-1 renal | ACHN renal | SNB-19 CNS | HL-60(TB) leukemia | SW-620 colon | DU-145 prostate | 786-0 renal | SK-OV-3 ovarian | NCI-H522 lung | NCI-H460 lung | MALME-3M melanoma | HS 578T breast | UO-31 renal | MDA-N | A498 renal | SK-MEL-5 melanoma | HCC-2998 colon | SNB-75 CNS | OVCAR-3 ovarian | OVCAR-5 ovarian | EKVX NSCLC | SF-268 CNS | KM12 colon | RPMI-8226 leukemia | A549 NSCLC | SN12C renal | HOP-62 NSCLC | NCI/ADR-RES ovarian | U251 CNS | UACC-62 melanoma | IGROV1 ovarian | NCI-H23 lung | NCI-H226 lung | MDA-MB-231 breast

O=C(O)c1cc(N=Nc2ccc([As](=O)(O)O)cc2)ccc1O
> 100 µM: PC-3 prostate | HCT-116 colon | LOX IMVI melanoma | COLO 205 colon | M14 melanoma | OVCAR-8 ovarian | HT29 colon | BT-549 breast | SF-295 CNS | CCRF-CEM leukemia | K-562 leukemia | SF-539 CNS | MDA-MB-435 | TK-10 renal | RXF 393 renal | SK-MEL-2 melanoma | HCT-15 colon | SK-MEL-28 melanoma | SR leukemia | MOLT-4 leukemia | MCF7 breast | OVCAR-4 ovarian | T-47D breast | CAKI-1 renal | ACHN renal | SNB-19 CNS | UACC-257 melanoma | HL-60(TB) leukemia | SW-620 colon | DU-145 prostate | 786-0 renal | SK-OV-3 ovarian | NCI-H522 lung | NCI-H460 lung | MALME-3M melanoma | HS 578T breast | UO-31 renal | MDA-N | A498 renal | SK-MEL-5 melanoma | HCC-2998 colon | SNB-75 CNS | OVCAR-3 ovarian | OVCAR-5 ovarian | EKVX NSCLC | SF-268 CNS | KM12 colon | RPMI-8226 leukemia | A549 NSCLC | SN12C renal | HOP-62 NSCLC | NCI/ADR-RES ovarian | U251 CNS | UACC-62 melanoma | IGROV1 ovarian | NCI-H23 lung | NCI-H226 lung | MDA-MB-231 breast

O=C1NNC(=O)C2C3c4ccccc4C(c4ccccc43)C12 (centres undefined)
> 100 µM: PC-3 prostate | HCT-116 colon | LOX IMVI melanoma | COLO 205 colon | M14 melanoma | OVCAR-8 ovarian | HT29 colon | BT-549 breast | SF-295 CNS | CCRF-CEM leukemia | K-562 leukemia | SF-539 CNS | TK-10 renal | RXF 393 renal | HCT-15 colon | SK-MEL-28 melanoma | SR leukemia | MOLT-4 leukemia | MCF7 breast | OVCAR-4 ovarian | T-47D breast | CAKI-1 renal | ACHN renal | SNB-19 CNS | UACC-257 melanoma | HL-60(TB) leukemia | SW-620 colon | DU-145 prostate | 786-0 renal | SK-OV-3 ovarian | NCI-H460 lung | MALME-3M melanoma | HS 578T breast | UO-31 renal | MDA-N | A498 renal | SK-MEL-5 melanoma | HCC-2998 colon | SNB-75 CNS | OVCAR-3 ovarian | OVCAR-5 ovarian | EKVX NSCLC | SF-268 CNS | KM12 colon | RPMI-8226 leukemia | A549 NSCLC | SN12C renal | HOP-62 NSCLC | NCI/ADR-RES ovarian | U251 CNS | UACC-62 melanoma | IGROV1 ovarian | NCI-H23 lung | NCI-H226 lung | MDA-MB-231 breast
